Reference: US12410153B2, “Compounds, compositions and methods” (Avalo Therapeutics, Inc., priority 2014, dated 2025)

What was measured:
[1] = molecular target: T1, NMDA-GluN2B receptors, rhesus monkey frontal cortex homogenate (Macaca mulatta, UniProt F6T8S6); test: Radioligand binding, rhesus frontal cortex homogenate; details: geometric mean
T1 construct: frontal cortex homogenate (dog and rhesus monkey); from tissue; host or cells: rhesus monkey frontal cortex homogenate
Procedure: (§1) Radioligand binding assays were performed at room temperature (or 37° C.) in 96-well microtiter plates with a final assay volume of […] in 20 mM HEPES buffer (pH 7.4) containing 150 mM NaCl. […] Nonspecific binding was assessed using N-(3-chlorobenzyl)-4-iodobenzimidamide (final concentration, 10 μM), and total binding was measured by addition of DMSO (final concentration, 2%). L(tk−) cell membranes expressing human GluN1a/GluN2B receptors (final concentration, 40 pM) and [^3H]-[(E)-N1-(2-methoxybenzyl)-cinnamamidine] (final concentration, 1 nM) were added to all wells of the microtiter plate. After 3 h (24 h or 48 h) of incubation at room temperature (or 37° C.), samples were filtered through Packard GF/B filters (presoaked in 0.05% polyethylenimine [PEI; Sigma P-3143]) and washed 10 times with 1 mL of cold 20 mM HEPES buffer per wash. After vacuum drying of the filter plates, 50 μL of Packard Microscint-20 was added and the bound radioactivity determined in a Packard TopCount.
(§2) Analogous binding experiments, to those described above for the cloned human receptor expressed in L(tk−) cells, were also performed using whole brain homogenate (rat), frontal cortex homogenate (dog and rhesus monkey), and temporal cortex homogenate (human).

[2] = molecular target: T2, NMDA-GluN2B receptors, rat whole brain homogenate (Rattus norvegicus, UniProt P35439+Q00960); test: Radioligand binding, rat whole brain homogenate; details: geometric mean
T2 construct: performed using whole brain homogenate (rat); from tissue; host or cells: rat whole brain homogenate
T2 sequence (Q00960 27-1482, other chains not shown): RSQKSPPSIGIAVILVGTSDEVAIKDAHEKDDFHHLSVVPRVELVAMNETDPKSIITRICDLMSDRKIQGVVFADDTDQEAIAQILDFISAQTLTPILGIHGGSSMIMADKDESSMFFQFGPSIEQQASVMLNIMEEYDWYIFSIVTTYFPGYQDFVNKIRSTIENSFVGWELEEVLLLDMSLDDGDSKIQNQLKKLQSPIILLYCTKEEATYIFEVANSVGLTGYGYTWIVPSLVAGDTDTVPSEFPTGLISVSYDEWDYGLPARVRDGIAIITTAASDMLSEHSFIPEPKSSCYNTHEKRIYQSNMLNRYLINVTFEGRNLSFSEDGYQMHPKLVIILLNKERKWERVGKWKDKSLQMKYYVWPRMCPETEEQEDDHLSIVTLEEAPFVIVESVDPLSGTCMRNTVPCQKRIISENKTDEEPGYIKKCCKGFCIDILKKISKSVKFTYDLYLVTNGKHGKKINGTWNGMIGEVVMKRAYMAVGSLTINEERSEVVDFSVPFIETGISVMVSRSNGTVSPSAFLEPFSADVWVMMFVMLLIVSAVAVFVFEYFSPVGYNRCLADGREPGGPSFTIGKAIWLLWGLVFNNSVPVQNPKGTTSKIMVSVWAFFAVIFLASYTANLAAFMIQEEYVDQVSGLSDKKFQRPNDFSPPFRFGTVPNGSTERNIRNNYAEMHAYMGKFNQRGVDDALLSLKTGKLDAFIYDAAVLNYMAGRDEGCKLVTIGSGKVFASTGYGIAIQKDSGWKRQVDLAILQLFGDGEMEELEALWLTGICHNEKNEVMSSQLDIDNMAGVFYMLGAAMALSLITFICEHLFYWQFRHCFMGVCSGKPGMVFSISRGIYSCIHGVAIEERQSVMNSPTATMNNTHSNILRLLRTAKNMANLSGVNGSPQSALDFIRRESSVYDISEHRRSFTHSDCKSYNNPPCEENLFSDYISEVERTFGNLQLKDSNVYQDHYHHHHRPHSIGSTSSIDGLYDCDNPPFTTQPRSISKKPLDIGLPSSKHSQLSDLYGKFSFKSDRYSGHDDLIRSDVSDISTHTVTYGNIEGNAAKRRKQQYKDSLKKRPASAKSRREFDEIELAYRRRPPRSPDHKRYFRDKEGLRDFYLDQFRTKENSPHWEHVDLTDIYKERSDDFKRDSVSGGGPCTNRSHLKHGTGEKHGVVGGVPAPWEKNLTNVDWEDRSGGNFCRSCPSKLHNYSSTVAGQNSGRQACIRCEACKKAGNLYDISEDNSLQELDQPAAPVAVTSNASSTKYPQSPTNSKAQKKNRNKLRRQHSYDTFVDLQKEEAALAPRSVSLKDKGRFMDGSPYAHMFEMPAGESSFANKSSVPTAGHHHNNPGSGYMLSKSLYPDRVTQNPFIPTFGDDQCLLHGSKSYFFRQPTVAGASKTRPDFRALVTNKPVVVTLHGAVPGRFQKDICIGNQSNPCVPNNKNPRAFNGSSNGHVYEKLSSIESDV
Procedure: as §1, §2

[3] = tested on: systemic blood pressure and heart rate; test: Blood pressure profile in chronically instrumented (telemetered) rats; type: in vivo, rat; details: for DAP change / PP change / SAP change / Activity change / HR change / MAP change: 1 hour post dose, vehicle subtracted, mean ± SEM; for Activity change / HR change / MAP change: listed as crystalline Form II of Compound (I)
Procedure: A single oral gavage dose was administered (volume: 5 mL/kg). […] Following the completion of the Latin square, two additional dose concentrations were evaluated (0.6 and 10 mg/kg, n=3 per group).
All IV doses were administered in manually restrained rats via tail vena-puncture. It should be noted that vehicle controls were also administered.
A 24-hour recording was performed prior to dosing (vehicle alone) and after each oral dose.

hERG current = hERG current (Homo sapiens, UniProt Q12809); test: In vitro hERG assay; type: cell-based
Procedure: The potential effects of Form II of Compound (I) on the functions of the nervous system, cardiovascular system, and respiratory system were evaluated in a battery of safety pharmacology studies that included an in vitro human ether-a-go-go-related gene (hERG) assay and in vivo studies in rats, dogs, and monkeys. CNS effects were tested in rats at single doses at 15, 75, and 225 mg/kg.
Effects of Form II on the cardiovascular system were tested in several studies. Potential QTc effects were tested in vitro and in vivo.

Sprague-Dawley rats = test: Rat forced swim test 24 hours after administration; type: in vivo; details: 10 mg/kg, p.o., 24 hours before test, p<0.05
Procedure: This study aimed to evaluate the duration of the antidepressant-like effects of Form II of Compound (I) using the forced swim test in male, Sprague-Dawley rats. Clinically effective antidepressant compounds reduce immobility time and increase swimming in rodents subjected to this test. Rats received Compound (I) (10 mg/kg, p.o.) or ketamine (10 mg/kg, i.p.) and 24 hours later were subjected to testing. […] The data represent mean±SEM.

[4] = molecular target: GluN1a/GluN2B human receptors (Homo sapiens, UniProt Q05586+Q13224); test: Calcium influx (FLIPR) in GluN1a/GluN2B L(tk−) cells
Sequence of GluN1a/GluN2B human receptors (Q13224 27-1484, other chains not shown): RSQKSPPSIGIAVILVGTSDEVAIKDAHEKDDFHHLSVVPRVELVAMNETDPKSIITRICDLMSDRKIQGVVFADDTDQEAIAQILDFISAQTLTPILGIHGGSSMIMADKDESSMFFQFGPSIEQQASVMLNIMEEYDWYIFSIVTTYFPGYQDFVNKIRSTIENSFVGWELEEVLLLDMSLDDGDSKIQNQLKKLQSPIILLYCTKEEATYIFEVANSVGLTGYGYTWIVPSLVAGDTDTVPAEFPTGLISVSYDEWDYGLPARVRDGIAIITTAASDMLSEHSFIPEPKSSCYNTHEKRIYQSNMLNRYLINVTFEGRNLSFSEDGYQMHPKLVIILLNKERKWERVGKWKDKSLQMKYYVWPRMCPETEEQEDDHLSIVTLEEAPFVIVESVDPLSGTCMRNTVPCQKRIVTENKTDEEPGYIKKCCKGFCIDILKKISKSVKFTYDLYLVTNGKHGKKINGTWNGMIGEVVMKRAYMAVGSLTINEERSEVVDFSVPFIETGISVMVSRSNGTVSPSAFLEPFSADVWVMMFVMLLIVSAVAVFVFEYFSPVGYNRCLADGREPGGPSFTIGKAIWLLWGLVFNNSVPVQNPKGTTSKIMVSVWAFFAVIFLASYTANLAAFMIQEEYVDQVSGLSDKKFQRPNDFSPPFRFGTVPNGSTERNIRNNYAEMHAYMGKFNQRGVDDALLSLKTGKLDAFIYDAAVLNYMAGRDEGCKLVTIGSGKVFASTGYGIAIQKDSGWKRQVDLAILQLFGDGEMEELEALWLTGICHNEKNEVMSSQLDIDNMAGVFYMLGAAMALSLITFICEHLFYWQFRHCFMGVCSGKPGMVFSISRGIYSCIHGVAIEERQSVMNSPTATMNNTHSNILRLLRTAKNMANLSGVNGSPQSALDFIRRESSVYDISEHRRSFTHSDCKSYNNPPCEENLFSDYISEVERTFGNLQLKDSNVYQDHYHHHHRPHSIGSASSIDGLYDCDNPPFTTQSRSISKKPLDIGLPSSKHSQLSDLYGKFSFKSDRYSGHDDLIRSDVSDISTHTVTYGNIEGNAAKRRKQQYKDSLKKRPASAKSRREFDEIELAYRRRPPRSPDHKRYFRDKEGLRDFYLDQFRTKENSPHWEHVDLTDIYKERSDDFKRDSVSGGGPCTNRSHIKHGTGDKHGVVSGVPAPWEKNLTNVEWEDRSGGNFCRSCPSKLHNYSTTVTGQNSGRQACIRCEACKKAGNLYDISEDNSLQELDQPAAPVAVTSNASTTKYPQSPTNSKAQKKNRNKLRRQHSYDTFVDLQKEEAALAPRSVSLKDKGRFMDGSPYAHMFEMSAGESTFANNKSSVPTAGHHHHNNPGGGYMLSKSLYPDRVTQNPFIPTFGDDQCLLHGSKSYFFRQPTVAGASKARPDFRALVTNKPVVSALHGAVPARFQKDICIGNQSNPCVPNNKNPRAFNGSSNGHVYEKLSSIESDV

[5] = 1 mg/kg PO in β1 AR blocked animals (atenolol 1 mg/kg), 1 hour post dosing

T1 sequence (F6T8S6 29-1484): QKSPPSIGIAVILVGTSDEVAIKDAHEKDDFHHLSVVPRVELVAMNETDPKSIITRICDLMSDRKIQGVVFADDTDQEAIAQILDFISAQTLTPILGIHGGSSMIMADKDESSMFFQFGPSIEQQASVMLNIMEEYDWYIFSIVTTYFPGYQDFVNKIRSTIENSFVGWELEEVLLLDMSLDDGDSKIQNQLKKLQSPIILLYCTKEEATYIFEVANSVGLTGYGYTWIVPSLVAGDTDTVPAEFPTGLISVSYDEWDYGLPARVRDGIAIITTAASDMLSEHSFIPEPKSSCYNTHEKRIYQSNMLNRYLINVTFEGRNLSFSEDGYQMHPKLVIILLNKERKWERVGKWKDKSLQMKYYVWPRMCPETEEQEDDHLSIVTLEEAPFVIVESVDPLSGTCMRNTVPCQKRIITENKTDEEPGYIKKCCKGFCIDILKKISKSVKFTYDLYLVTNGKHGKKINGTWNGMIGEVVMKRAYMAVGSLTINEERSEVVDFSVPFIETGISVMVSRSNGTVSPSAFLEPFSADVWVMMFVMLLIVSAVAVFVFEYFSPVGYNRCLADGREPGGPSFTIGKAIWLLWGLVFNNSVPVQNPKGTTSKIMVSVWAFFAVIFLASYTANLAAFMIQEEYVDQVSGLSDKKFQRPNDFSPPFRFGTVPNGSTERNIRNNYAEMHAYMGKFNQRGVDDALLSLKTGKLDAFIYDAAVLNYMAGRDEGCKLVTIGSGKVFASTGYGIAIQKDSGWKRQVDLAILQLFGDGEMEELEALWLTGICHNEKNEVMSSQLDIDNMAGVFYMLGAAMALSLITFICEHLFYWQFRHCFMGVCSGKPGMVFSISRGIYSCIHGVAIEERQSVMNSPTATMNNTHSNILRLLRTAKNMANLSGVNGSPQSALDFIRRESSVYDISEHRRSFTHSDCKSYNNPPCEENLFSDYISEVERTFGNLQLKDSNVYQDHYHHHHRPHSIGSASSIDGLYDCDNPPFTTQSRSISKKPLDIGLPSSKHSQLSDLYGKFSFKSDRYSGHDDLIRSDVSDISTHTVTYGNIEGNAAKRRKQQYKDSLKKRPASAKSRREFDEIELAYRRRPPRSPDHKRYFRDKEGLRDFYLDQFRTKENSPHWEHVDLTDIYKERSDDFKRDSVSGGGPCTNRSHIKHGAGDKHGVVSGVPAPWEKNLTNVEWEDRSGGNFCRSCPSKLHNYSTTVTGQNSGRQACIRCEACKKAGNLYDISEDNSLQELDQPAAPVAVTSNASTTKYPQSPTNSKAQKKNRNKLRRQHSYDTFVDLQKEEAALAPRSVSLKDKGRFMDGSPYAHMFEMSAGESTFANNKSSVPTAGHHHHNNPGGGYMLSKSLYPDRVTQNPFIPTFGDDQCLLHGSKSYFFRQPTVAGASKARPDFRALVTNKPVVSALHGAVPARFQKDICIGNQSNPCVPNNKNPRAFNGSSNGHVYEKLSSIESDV

Cc1ccc(COC(=O)N2CC[C@H](CNc3ncccn3)[C@H](F)C2)cc1 [Form II, 4-methylbenzyl (3S, 4R)-3-fluoro-4-[(pyrimidin-2-ylamino)methyl] piperidine-1-carboxylate]
Ki ([1]; 37° C.): 14 nM | Ki ([1]; room temp.): 3.1 nM | Ki ([2]; 37° C.): 14 nM | Ki ([2]; room temp.): 3.3 nM | DAP change ([3]; 0.3 mg/kg PO): 4.1 ± 0.9 mmHg | PP change ([3]; 0.3 mg/kg PO): 0.1 ± 1.0 mmHg | SAP change ([3]; 0.3 mg/kg PO): 4.3 ± 1.2 mmHg | Activity change ([3]; 0.3 mg/kg PO): 0.012±0.025 arbitrary unit | HR change ([3]; 0.3 mg/kg PO): 15±10 bpm | MAP change ([3]; 0.3 mg/kg PO): 4.2±0.9 mmHg | DAP change ([3]; 0.6 mg/kg PO): 7.8 ± 1.1 mmHg | PP change ([3]; 0.6 mg/kg PO): −1.5 ± 1.4 mmHg | SAP change ([3]; 0.6 mg/kg PO): 6.3 ± 1.6 mmHg | Activity change ([3]; 0.6 mg/kg PO): 0.003±0.033 arbitrary unit | HR change ([3]; 0.6 mg/kg PO): 10±15 bpm | MAP change ([3]; 0.6 mg/kg PO): 6.8±1.2 mmHg | MAP increase with dosing ([3]; 1 mg/kg PO in the setting of α1 AR blockade (prazosin 200 μg/kg)): 11.3±2.0 mmHg | HR change vs pre-blockade baseline ([3]; 1 mg/kg PO in the setting of α1 AR blockade (prazosin 200 μg/kg), 1 hour post dosing): 118±20 bpm | HR increase post-dosing ([3]; 1 mg/kg PO in β1 AR blocked animals (atenolol 1 mg/kg)): 53±17 bpm | HR change vs pre-blockade baseline [3, 5]: −7±17 bpm | MAP change vs pre-blockade baseline [3, 5]: 5.8±4.8 mmHg | DAP change ([3]; 1.0 mg/kg PO): 15.2 ± 3.0 mmHg | PP change ([3]; 1.0 mg/kg PO): 1.4 ± 1.1 mmHg | SAP change ([3]; 1.0 mg/kg PO): 16.8 ± 3.7 mmHg | Activity change ([3]; 1.0 mg/kg PO): 0.049±0.037 arbitrary unit | HR change ([3]; 1.0 mg/kg PO): 34±13 bpm | MAP change ([3]; 1.0 mg/kg PO): 15.7±3.2 mmHg | DAP change ([3]; 3.0 mg/kg PO): 15.0 ± 2.0 mmHg | PP change ([3]; 3.0 mg/kg PO): 4.0 ± 0.9 mmHg | SAP change ([3]; 3.0 mg/kg PO): 19.2 ± 2.4 mmHg | Activity change ([3]; 3.0 mg/kg PO): 0.174±0.048 arbitrary unit | HR change ([3]; 3.0 mg/kg PO): 66±9 bpm | MAP change ([3]; 3.0 mg/kg PO): 17.1±2.3 mmHg | DAP change ([3]; 10 mg/kg PO): 17.3 ± 1.9 mmHg | PP change ([3]; 10 mg/kg PO): 3.1 ± 1.3 mmHg | SAP change ([3]; 10 mg/kg PO): 20.7 ± 2.4 mmHg | Activity change ([3]; 10 mg/kg PO): 0.232±0.057 arbitrary unit | HR change ([3]; 10 mg/kg PO): 71±25 bpm | MAP change ([3]; 10 mg/kg PO): 19.1±2.4 mmHg | IC50 (hERG current): ~13000 nM | immobility (Sprague-Dawley rats): reduced immobility | swim time (Sprague-Dawley rats): increased swim time significantly | IC50 [4]: 3.6 nM
